Measured values from PubChem BioAssay AID859 (Vanderbilt High Throughput Screening Facility, 2007).

Molecular target: Muscarinic acetylcholine receptor M1 (Rattus norvegicus) (UniProt P08482)
Experiment: rat M1 muscarinic receptor antagonist potency, dose response, cell-based, calcium fluorescence (AID 859)
Conditions: M1-expressing cells, antagonist mode vs EC80

Muscarinic acetylcholine receptor M1 (Rattus norvegicus), sequence (P08482 whole entry, looked up): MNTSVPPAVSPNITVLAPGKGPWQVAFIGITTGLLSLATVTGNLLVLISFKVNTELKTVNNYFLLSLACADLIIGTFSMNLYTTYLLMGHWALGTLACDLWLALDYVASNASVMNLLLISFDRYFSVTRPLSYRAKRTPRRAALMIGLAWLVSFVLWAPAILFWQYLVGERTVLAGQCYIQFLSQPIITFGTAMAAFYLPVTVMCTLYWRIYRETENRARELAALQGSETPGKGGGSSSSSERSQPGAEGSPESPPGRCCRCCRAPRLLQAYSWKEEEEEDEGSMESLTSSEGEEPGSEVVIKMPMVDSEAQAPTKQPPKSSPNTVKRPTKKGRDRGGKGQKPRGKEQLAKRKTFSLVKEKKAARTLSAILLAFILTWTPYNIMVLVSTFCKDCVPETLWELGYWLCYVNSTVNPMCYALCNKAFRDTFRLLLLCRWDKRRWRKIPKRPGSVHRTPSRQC

Compound | IC50
Cc1nc2c(o1)CCc1ccccc1C2N1CCN(C)CC1 (stereo unspecified) | 0.0464 µM
Cc1ccc2c(c1)NC(=O)C(CC(=O)Nc1ccc(CN3CCC(C)CC3)cc1)O2 (stereo unspecified) | 0.29 µM
CCCC(CCC)C(=O)OC1C[C@H]2CC[C@@H](C1)[N+]2(C)C (stereo partly specified) | 0.302 µM
CCN1C(=O)/C(=C\N2CCCCCC2)SC1=S | 0.438 µM
CC1CCN(Cc2ccc(NC(=O)CC3Oc4ccccc4NC3=O)cc2)CC1 (stereo unspecified) | 0.234 µM
CC[N+]1(C)CCCC(OC(=O)C(O)(c2ccccc2)c2ccccc2)C1 (stereo unspecified) | 0.0159 µM
CNCCCC1c2ccccc2C=Cc2ccccc21 | 1.26 µM
OC(CCN1CCCC1)(c1ccccc1)C1CCCCC1 (stereo unspecified) | 0.116 µM
CN(C)CCCOC(=O)C1c2ccccc2Oc2ccccc21 | 0.0637 µM
CN1CCN(CCC(C#N)(c2ccccc2)c2ccccc2)CC1 | 0.395 µM
Cc1c(C(=O)OC(C)CCN(C)C)oc2ccccc12 (stereo unspecified) | 0.681 µM
CN1CCC(OC(=O)C2c3ccccc3Oc3ccccc32)CC1 | 0.00927 µM
Cc1onc(-c2ccccc2Cl)c1C(=O)Nc1ccc(-c2nnc3n2CCCCC3)cc1 | 0.491 µM
CN(C)CCC=C1c2ccccc2CCc2ccccc21 | 0.637 µM
O=C1CC(N2CCN(c3ccc(S(=O)(=O)N4CCOCC4)cc3)CC2)C(=O)N1Cc1ccccc1 (stereo unspecified) | 0.777 µM
CCN(CC)CCOC(=O)C(c1ccccc1)c1ccccc1 | 0.327 µM
c1ccc(-c2cc(-c3nnc4sc(-c5ccccn5)nn34)[nH]n2)cc1 | 0.414 µM
Clc1ccc(OCc2nnc(SCCN3CCCCC3)n2Cc2ccco2)cc1 | 1.4 µM

Compound | IC50
CN1CCN(C2=Nc3ccccc3Oc3ccc(Cl)cc32)CC1 | 1.21 µM
Cc1ccc2nc(NC3=NCN(CCN4CCOCC4)CN3)nc(C)c2c1 | 0.00277 µM
OC(CCN1CCCCC1)(c1ccccc1)c1ccccc1 | 0.058 µM
CCOC(=O)Nc1ccc2c(c1)N(C(=O)N1CCN(C)CC1)c1ccccc1S2 | 1.41 µM
O=C(OCCN1CCCC1)C1(c2ccccc2)CCCC1 | 0.182 µM
COC(=O)Nc1ccc2c(c1)N(C(=O)CCN1CCOCC1)c1ccccc1S2 | 1.06 µM
CN1CCCN=C1COC(=O)C(O)(c1ccccc1)C1CCCCC1 (stereo unspecified) | 0.0126 µM
CN(C)CCOC(=O)C(c1ccccc1)C1(O)CCCC1 (stereo unspecified) | 0.0257 µM
C=CCSc1nnc2c(n1)OC(c1cccnc1)N(C(C)=O)c1ccccc1-2 (stereo unspecified) | 0.19 µM
CCN1CCN(Cc2cc(=O)oc3cc(C)cc(C)c23)CC1 | 0.974 µM
CCOc1nc(C#N)nc(N2CCCCC2)n1 | 1.35 µM
O=C(CN1CCCC(O)C1)N1c2ccccc2Sc2ccc(C(F)(F)F)cc21 (stereo unspecified) | 0.766 µM
CCN(CCCCOC(=O)c1ccc(OC)c(OC)c1)C(C)Cc1ccc(OC)cc1 (stereo unspecified) | 1.16 µM
O=C(CN1CCN(CCOCCO)CC1)N1c2ccccc2Sc2ccc(Cl)cc21 | 1.03 µM
CCC(C)N(CCNC(=O)CC1Oc2ccc(C)cc2NC1=O)C1CCCCC1 (stereo unspecified) | 1 µM
Cn1cc(CN2CCN(c3ccccc3)CC2)c2ccccc21 | 0.226 µM
Cc1cccc(Cn2c(Sc3nc(C)cs3)nc3c2c(=O)[nH]c(=O)n3C)c1 | 0.0202 µM
O=C1CC(N2CCN(C/C=C/c3ccccc3)CC2)C(=O)N1Cc1cccs1 (stereo unspecified) | 0.846 µM
